Tested on: Human mesnchymal stem cells
Test: Alamar Blue toxicity assay in perfused microbioreactor culture
Format: cell-based
Details: 250 ng/ml, read at day 3 and day 7, FIG. 3
Method: Human mesnchymal stem cells were suspended in the α Modified Eagle's Medium (MEM) at the cell density of 10^4/ml. A 50 μl of cell suspension was introduced to each of the microbioreactors and kept at 37° C. After 4 h, the cell was seen to attach to the surface of the microbioreactor under microscope. During culture, αMEM supplemented with 15% FBS, 2% antibiotics/antimycotics and with different concentrations of tested drugs was used. The chemicals used were Trimethoprim and Pyrimethamine, which are known to be toxic to cells. The concentrations of the drug were 100 ng/ml and 250 ng/ml. The flow rate was 0.025 ml/h. Alamar Blue was used to do toxicity assay, which simply indicates the cell metabolity.
The samples from 3 days of culture with drug, 7 days of culture with drug and 3 days of culture without drug and further 4 days culture with drug were incubated with culture medium supplemented with Alamar Blue at day 3 and day 7, respectively for 4 h. Then 100 μl of culture medium was transferred to 96-well plate to read using microplate reader at the excitation wavelength of 530 nm and emission wavelength of 590 nm. Toxicity was shown as the ratio of reading from untreated with drug and from treated with drug, see FIG. 3. The toxicity was increased with culture time with drug. No significant different in toxicity between the two concentrations of drug in the test.

Compound: CCc1nc(N)nc(N)c1-c1ccc(Cl)cc1 [Pyrimethamine]
- Toxicity (ratio of reading from untreated with drug and from treated with drug): dramatic increase in toxicity
